Among the data in patent US20170144998A1, “ELASTASE INHIBITORS” (The California Institute for Biomedical Research, priority 2014, published 2017) are IC50 values, retold here.

This assay deals with T1, HNE (human neutrophil elastase) (Homo sapiens, UniProt P08246).
T1 construct: purchased Elastin Products (Owensville, Mo., USA) SE563
T1 sequence (P08246 30-267): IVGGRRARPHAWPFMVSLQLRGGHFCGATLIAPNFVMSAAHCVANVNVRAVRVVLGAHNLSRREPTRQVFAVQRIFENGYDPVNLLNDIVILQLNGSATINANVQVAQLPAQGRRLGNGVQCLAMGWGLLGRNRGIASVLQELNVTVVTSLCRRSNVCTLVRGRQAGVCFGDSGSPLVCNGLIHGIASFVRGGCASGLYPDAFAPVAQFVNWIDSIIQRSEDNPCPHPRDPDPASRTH
Nature of the assay: Elastase enzyme in-vitro inhibition assay. The format is biochemical. The note with it: HNE 20 nM, 15 min incubation at room temperature, substrate MeOSuc-AAPV-AMC 100 μM, PBS buffer. The method, then:
HNE were purchased from Elastin Products (Owensville, Mo., USA) with catalog number SE563. Fixed concentrations of HNE (20 nM) were incubated with various concentrations of inhibitors in PBS buffer in opaque 96-well plates. After 15 min incubation at room temperature, the corresponding fluorescent substrates MeOSuc-AAPV-AMC (Merck Millipore) were added to each well at final concentration 100 μM. Fluorescence was monitored on a Molecular Devices Spectramax fluorescence plate reader at 460 nm with excitation at 380 nm for 30 min. Residual enzyme activity was calculated using the slope of fluorescence increase in the first 10 min. Percentage of enzyme inhibition was plotted using GraphPad Prism 6 software (GraphPad Prism, La Jolla, Calif., USA). The IC50 value and Ki value was calculated using the Morrison tight-binding equation provided by the software.

Some results are limits rather than exact numbers.

On to `Cc1c([S+]([O-])c2ccc(C#N)cc2)cc(C(=O)NCCOCCOCCNC(=O)C(=O)NCCOCCOCCNC(=O)c2cc([S+]([O-])c3ccc(C#N)cc3)c(C)n(-c3cccc(C(F)(F)F)c3)c2=O)c(=O)n1-c1cccc(C(F)(F)F)c1` (centres unmarked) [Compound 19], for which the IC50 is less than 150 nM.

As to `Cc1c(-c2ccnn2-c2ccc(C#N)cc2)cc(C(=O)NCCOCCOCCOCCOCCNC(=O)C(=O)NCCOCCOCCOCCOCCNC(=O)c2cc(-c3ccnn3-c3ccc(C#N)cc3)c(C)n(-c3cccc(C(F)(F)F)c3)c2=O)c(=O)n1-c1cccc(C(F)(F)F)c1` [Compound 7], the IC50 lay in the range of 150 to 1000 nM.

On to `Cc1c(-c2ccnn2-c2ccc(C#N)cc2)cc(C(=O)NCCOCCOCCOCCOCCNC(=O)NCCOCCOCCOCCOCCNC(=O)c2cc(-c3ccnn3-c3ccc(C#N)cc3)c(C)n(-c3cccc(C(F)(F)F)c3)c2=O)c(=O)n1-c1cccc(C(F)(F)F)c1` [Compound 6], for which the IC50 is less than 150 nM.

On to `Cc1c(-c2ccnn2-c2ccc(C#N)cc2)cc(C(=O)NCCOCCOCCOCCNC(=O)NCCCCNC(=O)NCCOCCOCCOCCNC(=O)c2cc(-c3ccnn3-c3ccc(C#N)cc3)c(C)n(-c3cccc(C(F)(F)F)c3)c2=O)c(=O)n1-c1cccc(C(F)(F)F)c1` [Compound 11], for which the IC50 lay in the range of 150 to 1000 nM.

Turning to `Cc1c(-c2ccnn2-c2ccc(C#N)cc2)cc(C(=O)NCCOCCOCCOCCOCCNC(=O)CCC(=O)NCCOCCOCCOCCOCCNC(=O)c2cc(-c3ccnn3-c3ccc(C#N)cc3)c(C)n(-c3cccc(C(F)(F)F)c3)c2=O)c(=O)n1-c1cccc(C(F)(F)F)c1` [Compound 5], the half-inhibitory concentration (IC50) is less than 150 nM.

Regarding `Cc1c(-c2ccnn2-c2ccc(C#N)cc2)cc(C(=O)NCCOCCOCCNC(=O)NCCCCNC(=O)NCCOCCOCCNC(=O)c2cc(-c3ccnn3-c3ccc(C#N)cc3)c(C)n(-c3cccc(C(F)(F)F)c3)c2=O)c(=O)n1-c1cccc(C(F)(F)F)c1` [Compound 14], the IC50 was less than 150 nM.

As for `Cc1c(-c2ccnn2-c2ccc(C#N)cc2)cc(C(=O)NCCOCCOCCOCCOCCNC(=O)NCCCCNC(=O)NCCOCCOCCOCCOCCNC(=O)c2cc(-c3ccnn3-c3ccc(C#N)cc3)c(C)n(-c3cccc(C(F)(F)F)c3)c2=O)c(=O)n1-c1cccc(C(F)(F)F)c1` [Compound 4], the IC50 was less than 150 nM.

For `Cc1c([S+]([O-])c2ccc(C#N)cc2)cc(C(=O)NCCOCCOCCOCCNC(=O)CCC(=O)NCCOCCOCCOCCNC(=O)c2cc([S+]([O-])c3ccc(C#N)cc3)c(C)n(-c3cccc(C(F)(F)F)c3)c2=O)c(=O)n1-c1cccc(C(F)(F)F)c1` (centres unmarked) [Compound 18], the IC50 is less than 150 nM.

Take `Cc1c(-c2ccnn2-c2ccc(C#N)cc2)cc(C(=O)NCCOCCOCCNC(=O)C(=O)NCCOCCOCCNC(=O)c2cc(-c3ccnn3-c3ccc(C#N)cc3)c(C)n(-c3cccc(C(F)(F)F)c3)c2=O)c(=O)n1-c1cccc(C(F)(F)F)c1` [Compound 9]: the concentration for half-maximal inhibition (IC50) is less than 150 nM.

Turning to `Cc1c(-c2ccnn2C)cc(C(=O)NCCOCCOCCNC(=O)NCCCCNC(=O)NCCOCCOCCNC(=O)c2cc(-c3ccnn3C)c(C)n(-c3cccc(C(F)(F)F)c3)c2=O)c(=O)n1-c1cccc(C(F)(F)F)c1` [Compound 2], the IC50 lay within 150 to 1000 nM.

Regarding `Cc1c(-c2ccnn2-c2ccc(C#N)cc2)cc(C(=O)NCCOCCOCCOCCNC(=O)CCC(=O)NCCOCCOCCOCCNC(=O)c2cc(-c3ccnn3-c3ccc(C#N)cc3)c(C)n(-c3cccc(C(F)(F)F)c3)c2=O)c(=O)n1-c1cccc(C(F)(F)F)c1` [Compound 12], the IC50 is less than 150 nM.

`Cc1c([S+]([O-])c2ccc(C#N)cc2)cc(C(=O)NCCOCCOCCOCCOCCNC(=O)CCC(=O)NCCOCCOCCOCCOCCNC(=O)c2cc([S+]([O-])c3ccc(C#N)cc3)c(C)n(-c3cccc(C(F)(F)F)c3)c2=O)c(=O)n1-c1cccc(C(F)(F)F)c1` (centres unmarked) [Compound 16]: the IC50 was less than 150 nM.

As for `Cc1c([S+]([O-])c2ccc(C#N)cc2)cc(C(=O)NCCOCCOCCOCCNC(=O)NCCCCNC(=O)NCCOCCOCCOCCNC(=O)c2cc([S+]([O-])c3ccc(C#N)cc3)c(C)n(-c3cccc(C(F)(F)F)c3)c2=O)c(=O)n1-c1cccc(C(F)(F)F)c1` (centres unmarked) [Compound 17], the IC50 was 150 to 1000 nM.

`CC(C)C(NC(=O)[C@@H]1CCCN1C(=O)[C@@H](NC(=O)c1ccc(C(=O)NCCOCCOCCNC(=O)NCCCCNC(=O)NCCOCCOCCNC(=O)c2ccc(C(=O)N[C@H](C(=O)N3CCC[C@H]3C(=O)NC(C(=O)C(F)(F)F)C(C)C)C(C)C)cc2)cc1)C(C)C)C(=O)C(F)(F)F` (some centres unmarked) [Compound 1]: the IC50 was less than 150 nM.

For `Cc1c(-c2ccnn2-c2ccc(C#N)cc2)cc(C(=O)NCCOCCOCCOCCNC(=O)NCCOCCOCCOCCNC(=O)c2cc(-c3ccnn3-c3ccc(C#N)cc3)c(C)n(-c3cccc(C(F)(F)F)c3)c2=O)c(=O)n1-c1cccc(C(F)(F)F)c1` [Compound 10], the IC50 is less than 150 nM.

Take `Cc1c(-c2ccnn2-c2ccc(C#N)cc2)cc(C(=O)NCCOCCOCCOCCNC(=O)C(=O)NCCOCCOCCOCCNC(=O)c2cc(-c3ccnn3-c3ccc(C#N)cc3)c(C)n(-c3cccc(C(F)(F)F)c3)c2=O)c(=O)n1-c1cccc(C(F)(F)F)c1` [Compound 13]: the IC50 was less than 150 nM.

Regarding `Cc1c([S+]([O-])c2ccc(C#N)cc2)cc(C(=O)NCCOCCOCCOCCOCCNC(=O)NCCCCNC(=O)NCCOCCOCCOCCOCCNC(=O)c2cc([S+]([O-])c3ccc(C#N)cc3)c(C)n(-c3cccc(C(F)(F)F)c3)c2=O)c(=O)n1-c1cccc(C(F)(F)F)c1` (centres unmarked) [Compound 15], the IC50 is less than 150 nM.

As for `Cc1c(-c2ccnn2-c2ccc(C#N)cc2)cc(C(=O)NCCOCCOCCNC(=O)NCCOCCOCCNC(=O)c2cc(-c3ccnn3-c3ccc(C#N)cc3)c(C)n(-c3cccc(C(F)(F)F)c3)c2=O)c(=O)n1-c1cccc(C(F)(F)F)c1` [Compound 3], the IC50 was less than 150 nM.

In the case of `Cc1c(-c2ccnn2-c2ccc(C#N)cc2)cc(C(=O)NCCOCCOCCNC(=O)CCC(=O)NCCOCCOCCNC(=O)c2cc(-c3ccnn3-c3ccc(C#N)cc3)c(C)n(-c3cccc(C(F)(F)F)c3)c2=O)c(=O)n1-c1cccc(C(F)(F)F)c1` [Compound 8], the half-inhibitory concentration (IC50) is less than 150 nM.

As for `Cc1c([S+]([O-])c2ccc(C#N)cc2)cc(C(=O)NCCOCCOCCNC(=O)NCCCCNC(=O)NCCOCCOCCNC(=O)c2cc([S+]([O-])c3ccc(C#N)cc3)c(C)n(-c3cccc(C(F)(F)F)c3)c2=O)c(=O)n1-c1cccc(C(F)(F)F)c1` (centres unmarked) [Compound 20], the IC50 was 150 to 1000 nM.
